Measurements as given in patent US20090042958A1, “Composition and method for treating immune-mediated skin disorders” (Geneblue Corporation, priority 2006, published 2009).
Several values for one entry are separate records, joined by “and”; a condition that tells them apart may be missing. Identical values can stand only once.

Tests used:
Assay type in all cases: cell-based, human
[1] = tested on: EFA6R; experiment: Micro array gene expression analysis, EFA6R; settings: keratinocytes, UVB irradiated; treated/untreated (Cy5/Cy3)
Procedure: (§1) Stock solutions of test materials are listed below: • 1. UTL-5d stock: 1.7 mg/ml UTL-5d in a vehicle of 50:50 EtOH:PEG 600 v/v • 2. UTR-1 stock: 3.5 mg/ml UTR-1 in a vehicle of 50:50 EtOH:PEG 600 v/v • 3. Vehicle stock: 50:50 EtOH:PEG 600
(§2) Human epidermal keratinocytes were seeded into 6-well plates and grown at 37±2° C. and 5±1% CO2 using serum free Epilife media supplemented as recommended by the manufacturer. Upon reaching confluency, the media were removed and the cells were treated overnight with Epilife media containing 1% v/v each of the stock solutions above (Vehicle stock and UTR-1 stock). Final concentration was 35 μg/ml for UTR-1. Two wells in the 6-well plate were prepared for each treatment. After applying the test material the cells were incubated for 24 hours at 37±2° C. and 5±1% CO2.
(§3) At the end of the incubation period the culture media was removed via aspiration and replaced with phosphate buffered saline. […]
(§4) The cells were washed once with PBS and then a trypsin/EDTA solution was added to release the cells, followed by the addition of trypsin neutralizing solution. […] In general, (1) the fluorescence intensity of the gene marker should be greater than the background intensity, and (2) the ratio of Cy5/Cy3 (treated/untreated) fluorescence intensity needs to be greater than 1.3 or less than 0.66 to indicate a change of ±30% in gene expression.

[2] = tested on: APOBEC1; experiment: Micro array gene expression analysis, APOBEC1; settings: keratinocytes, UVB irradiated; treated/untreated (Cy5/Cy3)
Procedure: as §1, §2, §3, §4

[3] = tested on: JAK3; experiment: Micro array gene expression analysis, JAK3; settings: keratinocytes, UVB irradiated; treated/untreated (Cy5/Cy3)
Procedure: as §1, §2, §3, §4

[4] = tested on: PTGER2; experiment: Micro array gene expression analysis, PTGER2; settings: keratinocytes, UVB irradiated; treated/untreated (Cy5/Cy3)
Procedure: as §1, §2, §3, §4

[5] = tested on: PTGER3; experiment: Micro array gene expression analysis, PTGER3; settings: keratinocytes, UVB irradiated; treated/untreated (Cy5/Cy3)
Procedure: as §1, §2, §3, §4

[6] = tested on: ITGB6; experiment: Micro array gene expression analysis, ITGB6; settings: keratinocytes, UVB irradiated; treated/untreated (Cy5/Cy3)
Procedure: as §1, §2, §3, §4

[7] = tested on: TUCAN; experiment: Micro array gene expression analysis, TUCAN; settings: keratinocytes, UVB irradiated; treated/untreated (Cy5/Cy3)
Procedure: as §1, §2, §3, §4

[8] = tested on: TNFRSF6B; experiment: Micro array gene expression analysis, TNFRSF6B; settings: keratinocytes, UVB irradiated; treated/untreated (Cy5/Cy3)
Procedure: as §1, §2, §3, §4

[9] = tested on: CDCP1; experiment: Micro array gene expression analysis, CDCP1; settings: keratinocytes, UVB irradiated; treated/untreated (Cy5/Cy3)
Procedure: as §1, §2, §3, §4

[10] = tested on: TGFB2; experiment: Micro array gene expression analysis, TGFB2; settings: keratinocytes, UVB irradiated; treated/untreated (Cy5/Cy3)
Procedure: as §1, §2, §3, §4

[11] = tested on: PTGIR; experiment: Micro array gene expression analysis, PTGIR; settings: keratinocytes, UVB irradiated; treated/untreated (Cy5/Cy3)
Procedure: as §1, §2, §3, §4

[12] = tested on: PTGFR; experiment: Micro array gene expression analysis, PTGFR; settings: keratinocytes, UVB irradiated; treated/untreated (Cy5/Cy3)
Procedure: as §1, §2, §3, §4

[13] = tested on: DEFA6; experiment: Micro array gene expression analysis, DEFA6; settings: keratinocytes, UVB irradiated; treated/untreated (Cy5/Cy3)
Procedure: as §1, §2, §3, §4

[14] = tested on: TNFSF13; experiment: Micro array gene expression analysis, TNFSF13; settings: keratinocytes, UVB irradiated; treated/untreated (Cy5/Cy3)
Procedure: as §1, §2, §3, §4

[15] = tested on: EPHB4; experiment: Micro array gene expression analysis, EPHB4; settings: keratinocytes, UVB irradiated; treated/untreated (Cy5/Cy3)
Procedure: as §1, §2, §3, §4

[16] = tested on: MAP3K2; experiment: Micro array gene expression analysis, MAP3K2; settings: keratinocytes, UVB irradiated; treated/untreated (Cy5/Cy3)
Procedure: as §1, §2, §3, §4

[17] = tested on: TNF-α; experiment: TNF-α release (ELISA) after UVB irradiation, EpiDerm/keratinocyte model; settings: for TNF-α (pg/ml), Sample2 / TNF-α (pg/ml), sample1: TNF-α released into media after UVB ~30 mJ/cm^2; for TNF-α (pg/ml), Sample2: UVB + Vehicle 147; for TNF-α (pg/ml), sample1: UVB + Vehicle 257; for TNF-α Avg.: average of sample 1 and 2, UVB + Vehicle 202
Procedure: as §1, §2
At the end of the incubation period the culture media was removed via aspiration and replaced with phosphate buffered saline. The cells were then irradiated with ˜30 mJ/cm^2 of UVB radiation. Fresh culture media was then applied to the cells and the cells were incubated overnight at 37±2° C. and 5±1% CO2. After the incubation the cell culture media was collected to measure TNF-α release by a commercial ELISA Assay kit.

[18] = tested on: PTGER1; experiment: Micro array gene expression analysis, PTGER1; settings: keratinocytes, UVB irradiated; treated/untreated (Cy5/Cy3)
Procedure: as §1, §2, §3, §4

Row | Structure (SMILES) | EFA6R Gene expression (%) [1] | APOBEC1 Gene expression (%) [2] | JAK3 Gene expression (%) [3] | PTGER2 Gene expression (%) [4] | PTGER3 Gene expression (%) [5] | ITGB6 Gene expression (%) [6] | TUCAN Gene expression (%) [7] | TNFRSF6B Gene expression (%) [8] | CDCP1 Gene expression (%) [9] | TGFB2 Gene expression (%) [10] | PTGIR Gene expression (%) [11] | PTGFR Gene expression (%) [12] | DEFA6 Gene expression (%) [13] | TNFSF13 Gene expression (%) [14] | EPHB4 Gene expression (%) [15] | MAP3K2 Gene expression (%) [16] | TNF-α (pg/ml), Sample2 [17] | TNF-α (pg/ml), sample1 [17] | TNF-α Avg. [17] | PTGER1 Gene expression (%) [18]
1 | Cc1cc(C(=O)Nc2ccc(Cl)cc2)no1 [UTL-5d] | 29.2% | 29.2% | 34.7% and 29.3% | 39.9% | 42.7% | 24.3% | 26.0% | 52.1% | 44.1% | 38.2% | 27.0% | 24.5% | 44.3% | 47.0% | 35.8% | 59.9% | 67 pg/mL | 61 pg/mL | 64 pg/mL | 33.8%
2 | Cc1cc(C(=O)O)no1 [UTR-1] | 37.5% | 33.3% | 38.6% and 41.7% | 58.0% | 40.8% | 30.0% | 33.3% | 68.0% | 65.6% | 57.9% | 39.4% | 40.0% | 38.0% | 42.5% | 43.3% | 59.2% | 119 pg/mL | 120 pg/mL | 120 pg/mL | 28.6%
